The values that follow come from PubChem BioAssay (NCI).

Structures are written as SMILES.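 Growth conditions: 96-well plates. Treatment: test compound, 48 hours, 5 concentrations. Analysis: linear interpolation between bracketing concentrations; unreached endpoints set to highest concentration. GI50 = concentration required for 50% inhibition of growth. At the TGI there is no net growth.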

Holding throughout (experiment): DTP human tumour cell line panel, 48 h
Assay [1] deals with MOLT-4 leukemia.
Assay [2] relates to MDA-N.
Assay [3] deals with MDA-MB-435.
For assay [4], the system named is HCT-15 colon.
Assay [5] relates to IGROV1 ovarian.
Assay [6] deals with T-47D breast.
Assay [7] concerns EKVX NSCLC.
The test system of assay [8] is 786-0 renal.
Assay [9] relates to HT29 colon.
Assay [10] has as its system MALME-3M melanoma.
Assay [11] concerns HCC-2998 colon.

Consider `COc1ccc(NC=O)c(C(O)CCNC(C)=O)c1` (stereo unspecified), for which the TGI in assay [1], in [2], in assay [3], in assay [4], in [5] and in assay [6] was above 100 µM throughout. Moreover, the TGI in assay [7], in assay [8] and in [9] was above 100 µM each time.
As to `Nc1ncc2c(n1)-c1ccccc1OC2NC1CC1` (stereo unspecified), the TGI in assay [1], in assay [2], in [3], in assay [4], in assay [5] and in assay [6] was above 100 µM in each case. The TGI in assay [7], in assay [8] and in [9] was above 100 µM each time.
For the molecule `CCN(CC)CCCCC1CCN(CC(=O)N2c3ccccc3NC(=O)c3ccccc32)CC1`, the TGI in assay [1], in [10], in assay [11], in assay [7], in assay [8] and in assay [9] was above 100 µM in each case.
For `COc1cc(C2c3cccc4cccc(c34)C3CCC(=O)N32)cc(O)c1O` (stereo unspecified), the concentration for total growth inhibition (TGI) in assay [1] is 41.6 µM; in assay [2], above 50 µM; in assay [3], above 50 µM; in assay [4], above 50 µM; in assay [5] it was above 50 µM; in [6] it was above 50 µM. The TGI in [7], in assay [8] and in assay [9] was above 50 µM throughout.
Consider `C1=CCN(c2ccccc2)CC1`, for which the TGI in assay [1] was above 100 µM; in assay [10] it was 46.8 µM; in assay [11], above 100 µM; in assay [4] it was 47.1 µM; in assay [5], 96.3 µM; in assay [7], above 100 µM. Also, the TGI in [9] stood at 87.3 µM.
On to `COc1ccc(NS(=O)CCc2ccccc2)cc1` (stereo unspecified), for which the TGI in assay [1], in assay [10], in assay [2], in [3], in assay [11] and in [4] was above 100 µM in each case. In addition, the TGI in [5], in assay [7], in assay [8] and in assay [9] was above 100 µM in each case.
On to `C/C(C=O)=N\Nc1cc(C)c2ccccc2n1`, for which the TGI was 36.8 µM in assay [1]; 38.1 µM in assay [3]; 29.3 µM in assay [11]; 26.3 µM in assay [4]; 32.1 µM in assay [5]; 39.9 µM in [6]. The figures for the TGI in [7], in [8] and in assay [9] were 33.7 µM, 28.7 µM and 30.8 µM, respectively.
On to `Nc1ccc(N=Nc2ccc(/C=C/c3ccc(N=Nc4ccc(N)c5ccc(S(=O)(=O)O)cc45)cc3S(=O)(=O)O)c(S(=O)(=O)O)c2)c2cc(S(=O)(=O)O)ccc12`, for which the TGI in [1], in assay [10], in assay [11], in assay [4], in [5] and in assay [7] was above 100 µM throughout. Also, the TGI in assay [9] was above 100 µM.
Turning to `CCOC(=O)[C@H]1C[C@@H](C(=O)c2ccccc2)N2N=C(c3ccc(Br)cc3)C=C[C@H]12`, the TGI in [1], in assay [3], in [11], in assay [4], in assay [6] and in assay [8] was above 100 µM each time.
Turning to `CC(SC1=CC(=O)c2c(Cl)ccc(O)c2C1=O)C(=O)O` (stereo unspecified), the concentration for total growth inhibition (TGI) stood at 57.7 µM in assay [1]; 37.7 µM in assay [10]; 41.1 µM in assay [11]; 33.9 µM in assay [4]; 33.4 µM in [5]; 39.9 µM in [7].
`N#Cc1c(-c2ccccc2)c(C#N)c(=O)n(NS(=O)(=O)c2ccccc2)c1O`: the TGI in assay [1], in assay [10], in assay [2], in [3], in assay [11] and in assay [4] was above 100 µM in each case. In addition, the TGI in assay [5], in assay [7], in [8] and in assay [9] was above 100 µM throughout.
On to `C/C(C=O)=C1\C(O)C[C@]1(C)C1CC(C)(C)CC1O` (stereo partly specified), for which the TGI in assay [1], in assay [10], in assay [11], in [7], in assay [8] and in assay [9] was above 100 µM each time.
For `Oc1ccccc1C=Nc1ccc(Oc2ccc(Cl)cc2)c(Cl)c1`, the TGI in assay [1] was above 100 µM; in assay [10], 44.2 µM; in [3], above 100 µM; in assay [11] it was 45.7 µM; in assay [4], 36.6 µM; in [5], above 100 µM. Besides, the TGI in assay [6] was determined as 40.1 µM; in assay [7], 52 µM; in [8] it was 98.7 µM; in [9] it was 40.1 µM.
With `CCc1cc(Cc2cc(CC)c(NC(=O)C3=CC(=O)CC(c4ccc(OC)cc4)O3)c(CC)c2Cl)c(Cl)c(CC)c1NC(=O)C1=CC(=O)CC(c2ccc(OC)cc2)O1` (stereo unspecified), the TGI in assay [1] was above 100 µM; in [10], 37.2 µM; in [11], 30.4 µM; in assay [4], 53.7 µM; in assay [5], 45.5 µM; in [7], above 100 µM. Besides, the figures for the TGI in [8] and in assay [9] were 34.3 µM and 36.4 µM, respectively.
Turning to `Cc1ccc(S(=O)(=O)N/N=C2\C(=O)C3CC2C(Cl)C3Cl)cc1` (stereo unspecified), the TGI in assay [1], in assay [10], in [11], in [4], in [5] and in assay [8] was above 100 µM in each case. The molecule also registered a TGI in [9] above 100 µM.
For the molecule `O=c1c2cc(I)ccc2nc(-c2cccs2)n1Nc1ccccc1`, the TGI in assay [1] is above 100 µM; in assay [3] it was above 100 µM; in assay [11] it was 50.8 µM; in assay [4] it was above 100 µM; in assay [5] it was above 100 µM; in assay [7] it was 58.4 µM. The molecule also came in with a TGI in [9] above 100 µM.
As for `COc1ccc2c(c1)c(Cc1c(C)n(C)c3ccc(OC)cc13)c(C)n2C`, the TGI in [1], in [10], in assay [4], in assay [5], in assay [7] and in [8] was above 100 µM throughout. The TGI in assay [9] was above 100 µM.
For the molecule `COc1cc(/C=C2\CCCC3=C2NC(N)=NC3c2cc(OC)c(OC)c(OC)c2)cc(OC)c1OC` (stereo unspecified), the GI50 in assay [1] is 1.69 µM; in [10], 1.92 µM; in assay [3] it was 0.422 µM; in [5], 3.35 µM; in [7] it was 3.12 µM. The TGI in assay [1] was 5.83 µM; in [10], 5.47 µM; in assay [3], above 100 µM; in assay [5], above 100 µM; in assay [7], above 100 µM.
Regarding `CCn1c(=O)c2c(=O)[nH][nH]c2c2ccccc21`, the TGI in assay [1], in assay [10], in [2], in [3], in assay [11] and in assay [4] was above 100 µM throughout. In addition, the TGI in [5], in assay [7], in [8] and in assay [9] was above 100 µM throughout.
Consider `CC(=O)Nc1ccc(-c2nnc(SCC(=O)Nc3ccccc3Cl)o2)cc1`, for which the TGI in assay [1], in assay [10], in [11], in assay [4], in assay [5] and in [8] was above 100 µM each time. For the same molecule, the TGI in [9] is above 100 µM.
In the case of `O=C(Cc1ccccc1)N/N=C(/CCN1CCCC1)CC(c1ccccc1)c1c(O)c2ccccc2oc1=O` (stereo unspecified), the total growth inhibition concentration (TGI) in assay [1], in assay [10], in assay [2], in [3], in assay [11] and in [4] was above 100 µM in each case. Moreover, the TGI in [5], in assay [7], in assay [8] and in assay [9] was above 100 µM in each case.
Take `C1CSCC2(COC2)CS1`: the TGI in assay [1], in assay [2], in assay [3], in assay [11] and in [9] was above 100 µM throughout.
Regarding `CSC1=N/C(=C\c2cccs2)C(=O)N1CN1CCCCC1`, the TGI in assay [1], in [10], in assay [2], in [3], in [4] and in assay [5] was above 100 µM each time. For the same molecule, the TGI in assay [7], in assay [8] and in assay [9] was above 100 µM each time.
Consider `NN/C(=N\S(=O)(=O)c1cc(Cl)c(Oc2ccc([N+](=O)[O-])cc2Cl)c(Cl)c1)Nc1ccc(Cl)cc1`, for which the TGI in assay [1] was determined as 85.8 µM; in assay [10], 37.2 µM; in [2] it was 33 µM; in assay [4] it was 41.7 µM; in assay [5] it was 42.3 µM; in [6], 56.5 µM. Besides, the total growth inhibition concentration (TGI) is 61.2 µM in assay [7], 36.8 µM in [8] and 39.1 µM in [9].
As to `c1ccc(C2=NN(c3ccccc3)C3(S2)SC(c2ccccc2)(c2ccccc2)c2ccccc23)cc1` (stereo unspecified), the TGI in assay [1], in assay [10], in assay [11], in [4], in [5] and in assay [7] was above 100 µM each time. The TGI in assay [8] and in assay [9] was above 100 µM throughout.
In the case of `Clc1cc(Cl)cc(N2N=C(c3cccc(Nc4ccncc4)c3)CC2c2ccccc2)c1` (stereo unspecified), the GI50 in [1] was 2.29 µM; in assay [10] it was 1.67 µM; in [3], 1.72 µM; in [4], 1.66 µM; in assay [5], 1.54 µM; in assay [6], 1.73 µM. Further, the GI50 in [7] was 1.7 µM; in [9] it was 1.8 µM. Moreover, the TGI in assay [1] stood at 5.95 µM; in [10], 3.16 µM; in assay [3], 3.36 µM; in [4], 3.31 µM; in assay [5], 3.04 µM; in [6] it was 4.2 µM. The results for the TGI in assay [7] and in assay [9] were 4.23 µM and 3.73 µM, respectively.
On to `CCOc1ccc(NCC(=O)N2CC(=O)Nc3ccccc32)cc1`, for which the TGI in assay [1], in assay [10], in [11], in assay [4], in assay [7] and in assay [8] was above 100 µM throughout. Also, the total growth inhibition concentration (TGI) in assay [9] is above 100 µM.
For the molecule `COc1ccc(CCN2CCC(C#N)(c3ccc(OC)c(OC)c3)CC2)cc1OC`, the TGI in [1], in assay [10], in assay [11], in assay [4], in [5] and in assay [7] was above 100 µM throughout. Besides, the TGI in assay [8] and in assay [9] was above 100 µM throughout.
For the molecule `Oc1cn(-c2ccc(Cl)cc2)nc1-c1nnc(Nc2ccccc2)o1`, the TGI in assay [10] was 50.1 µM; in [3], 34.3 µM; in assay [4] it was 28 µM; in [5], 32.4 µM; in [6] it was 50.3 µM; in assay [7] it was 72.8 µM. Further, the TGI in assay [8] was found to be 36.1 µM; in assay [9], 22 µM.
Regarding `Cc1nc2ccccc2nc1NS(=O)(=O)c1ccc(N)cc1`, the TGI in assay [1], in assay [10], in assay [11], in assay [4], in assay [5] and in [7] was above 100 µM throughout. The TGI in assay [8] and in assay [9] was above 100 µM in each case.
For `O=C1/C(=C/c2cccc([N+](=O)[O-])c2)COc2ccccc21`, the TGI was 6.62 µM in assay [1]; above 50.6 µM in [10]; above 23.4 µM in assay [11]; 3.11 µM in assay [4]; above 19.9 µM in assay [5]; above 92.2 µM in assay [7]. The total growth inhibition concentration (TGI) in assay [8] worked out at 3.16 µM; in [9], 6.85 µM.

The term TGI denotes the concentration at which net growth stops. In general, GI50 refers to the concentration giving 50% growth inhibition.
